Patent US12077531B2, “Imidazopyridinone compound” (KISSEI PHARMACEUTICAL CO., LTD., priority 2018, dated 2024)
Counter-ions that a name gives are not always drawn.

target: human PHD2184-418 (Homo sapiens (Human), UniProt Q9GZT9); test: PHD2 inhibitory test (fluorescence polarization, binding between PHD2 and HIF-1α); settings: human PHD2184-418, FITC-labeled HIF-1α556-574, 2 μM 2-oxoglutarate, 37° C. 60 minutes
Protocol: Test Example 1 PHD2 Inhibitory Test
(1) Expression and Preparation of Human PHD2184-418
Human PHD2184-418 containing amino acid residues 184 to 418 of the protein represented by CAC42509 (GenBank accession ID) was expressed and prepared by the following method.
An expression construct of human PHD2184-418 containing N-terminal histidine tag was introduced into pET-30a (+) vector, and the sequence was confirmed. This vector was introduced into BL21 (DE3) strain and cultured at 37° C. in LB medium containing antibiotics. After culturing, a cell lysis solution was added to the cells, and then the cells were disrupted by sonication. The disrupted suspension was centrifuged and the supernatant was purified by Ni column to give human PHD2184-418.
Human HIF-1α556-574 (FITC-labeled HIF-1α556-574), containing N-terminal FITC-Ahx, containing amino acid residues 556 to 574 (partial peptide) of HIF-1α was used as a substrate. Using FITC-labeled HIF-1α556-574, the competitive inhibition between 2-oxoglutarate and test compounds (PHD inhibitor) was evaluated based on the change in fluorescence polarization by the following method.
An enzyme (human PHD2184-418) and the substrate were diluted with an assay buffer (pH 7.4) containing 10 mM HEPES, 150 mM NaCl, 10 μM MnCl2-4H2O, 2 μM 2-oxoglutarate and 0.05% Tween-20. Test compounds were diluted with DMSO. Test compounds and human PHD2184-418 was added to the 384-well plate (Corning, black, opaque bottom) in advance. The reaction was started by the addition of FITC-labeled HIF-1α556-574. After incubating at 37° C. for 60 minutes, fluorescence polarization (excitation wavelength: 470 nm, fluorescence wavelength: 530 nm) was measured by PHERAstar FSX (BMG Labtech). Fluorescence polarization of each well was measured, and human PHD2 binding inhibitory activity of test compounds was calculated based on the value of test compound-free group.

Chain of human PHD2184-418 (Q9GZT9 184-418): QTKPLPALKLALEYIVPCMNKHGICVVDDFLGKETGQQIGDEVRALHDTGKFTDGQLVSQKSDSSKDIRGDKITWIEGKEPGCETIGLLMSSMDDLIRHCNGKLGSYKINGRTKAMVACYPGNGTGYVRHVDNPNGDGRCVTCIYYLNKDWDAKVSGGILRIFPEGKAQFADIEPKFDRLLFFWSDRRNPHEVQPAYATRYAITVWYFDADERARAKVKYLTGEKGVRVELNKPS

Row | IC50 | Compound
1 | 8.43 µM | Cc1cccnc1CN1CC[C@H](n2c(=O)n(-c3ccc(-c4ccccc4)cc3)c3cccnc32)C1 [Example 1, (S)-1-([1,1′-Biphenyl]-4-yl)-3-(1-((3-methylpyridin-2-yl)methyl)pyrrolidin-3-yl)-1,3-dihydro-2H-imidazo[4,5-b]pyridin-2-one]
2 | 0.79 µM | Cn1ccnc1CN1CC[C@H](n2c(=O)n(-c3ccc(-c4ccccc4)cc3)c3cccnc32)C1 [Example 2, (S)-1-([1,1′-biphenyl]-4-yl)-3-(1-((1-methyl-1H-imidazol-2-yl)methyl)pyrrolidin-3-yl)-1,3-dihydro-2H-imidazo[4,5-b]pyridin-2-one]
3 | 3.9 µM | Cn1ccnc1CN1CC[C@@H](n2c(=O)n(-c3ccc(-c4ccccc4)cc3)c3cccnc32)C1 [Example 3, (R)-1-([1,1′-Biphenyl]-4-yl)-3-(1-((1-methyl-1H-imidazol-2-yl)methyl)pyrrolidin-3-yl)-1,3-dihydro-2H-imidazo[4,5-b]pyridin-2-one]
4 | 2.98 µM | O=c1n(-c2ccc(-c3ccccc3)cc2)c2cccnc2n1[C@H]1CCN(Cc2c[nH]cn2)C1 [Example 5, (S)-3-(1-((1H-Imidazol-4-yl)methyl)pyrrolidin-3-yl)-1-([1,1′-biphenyl]-4-yl)-1,3-dihydro-2H-imidazo[4,5-b]pyridin-2-one]
5 | 15.6 µM | O=c1n(-c2ccc(-c3ccccc3)cc2)c2cccnc2n1[C@H]1CCN(Cc2ncc[nH]2)C1 [Example 7, (S)-3-(1-((1H-Imidazol-2-yl)methyl)pyrrolidin-3-yl)-1-([1,1′-biphenyl]-4-yl)-1,3-dihydro-2H-imidazo[4,5-b]pyridin-2-one]
6 | 4.95 µM | Cn1ccnc1CN1CCC(n2c(=O)n(-c3ccc(-c4ccccc4)cc3)c3cccnc32)CC1 [Example 12, 1-([1,1′-Biphenyl]-4-yl)-3-(1-((1-methyl-1H-imidazol-2-yl)methyl)piperidin-4-yl)-1,3-dihydro-2H-imidazo[4,5-b]pyridin-2-one]
7 | 0.12 µM | Cn1ccnc1CN1CC(n2c(=O)n(-c3ccc(-c4ccccc4)cc3)c3cccnc32)C1 [Example 13, 1-([1,1′-Biphenyl]-4-yl)-3-(1-((1-methyl-1H-imidazol-2-yl)methyl)azetidin-3-yl)-1,3-dihydro-2H-imidazo[4,5-b]pyridin-2-one]
8 | 0.36 µM | Cn1ccnc1CN1CC[C@H](n2c(=O)n(-c3ccc(-c4ccc(O)cc4)cc3)c3cccnc32)C1 [Example 14, (S)-1-(4′-Hydroxy-[1,1′-biphenyl]-4-yl)-3-(1-((1-methyl-1H-imidazol-2-yl)methyl)pyrrolidin-3-yl)-1,3-dihydro-2H-imidazo[4,5-b]pyridin-2-one]
9 | 6.71 µM | Cn1ccnc1CN1CC[C@H](n2c(=O)n(-c3ccc(-c4ccccc4)cc3)c3ccc(C(=O)O)nc32)C1 [Example 20, (S)-1-([1,1′-Biphenyl]-4-yl)-3-(1-((1-methyl-1H-imidazol-2-yl)methyl)pyrrolidin-3-yl)-2-oxo-2,3-dihydro-1H-imidazo[4,5-b]pyridine-5-carboxylic acid]

Continued, molecule first:

Row | Compound | IC50
10 | O=c1n(-c2ccc(-c3ccccc3)cc2)c2cccnc2n1[C@H]1CCN(Cc2ccccn2)C1 [Example 4, (S)-1-([1,1′-Biphenyl]-4-yl)-3-(1-(pyridin-2-ylmethyl)pyrrolidin-3-yl)-1,3-dihydro-2H-imidazo[4,5-b]pyridin-2-one] | 3.45 µM
11 | O=c1n(-c2ccc(-c3ccccc3)cc2)c2cccnc2n1[C@H]1CCN(Cc2ccc(O)cn2)C1 [Example 9, (S)-1-([1,1′-Biphenyl]-4-yl)-3-(1-((5-hydroxypyridin-2-yl)methyl)pyrrolidin-3-yl)-1,3-dihydro-2H-imidazo[4,5-b]pyridin-2-one] | 8.03 µM
12 | O=c1n(-c2ccc(-c3ccccc3)cc2)c2cccnc2n1[C@H]1CCN(Cc2cc(O)ccn2)C1 [Example 10, (S)-1-([1,1′-Biphenyl]-4-yl)-3-(1-((4-hydroxypyridin-2-yl)methyl)pyrrolidin-3-yl)-1,3-dihydro-2H-imidazo[4,5-b]pyridin-2-one] | 5.49 µM
13 | Cn1ccnc1CN1CC[C@H](n2c(=O)n(-c3ccccc3)c3cccnc32)C1 [Example 11, (S)-3-(1-((1-Methyl-1H-imidazol-2-yl)methyl)pyrrolidin-3-yl)-1-phenyl-1,3-dihydro-2H-imidazo[4,5-b]pyridin-2-one hydrochloride] | 85.4 µM
14 | COC(=O)c1ccc(-n2c(=O)n([C@H]3CCN(Cc4ncccc4C)C3)c3ncccc32)cc1 [Example 15, Methyl (S)-4-(3-(1-((3-methylpyridin-2-yl)methyl)pyrrolidin-3-yl)-2-oxo-2,3-dihydro-1H-imidazo[4,5-b]pyridin-1-yl)benzoate] | 64.5 µM
15 | O=C(O)c1ccnc(CN2CC[C@H](n3c(=O)n(-c4ccc(-c5ccccc5)cc4)c4cccnc43)C2)c1 [Example 16, (S)-2-((3-(1-([1,1′-Biphenyl]-4-yl)-2-oxo-1,2-dihydro-3H-imidazo[4,5-b]pyridin-3-yl)pyrrolidin-1-yl)methyl)isonicotinic acid] | 0.14 µM
16 | O=C(O)c1ccc(CN2CC[C@H](n3c(=O)n(-c4ccc(-c5ccccc5)cc4)c4cccnc43)C2)nc1 [Example 17, (S)-6-((3-(1-([1,1′-Biphenyl]-4-yl)-2-oxo-1,2-dihydro-3H-imidazo[4,5-b]pyridin-3-yl)pyrrolidin-1-yl)methyl)nicotinic acid] | 0.52 µM
17 | COc1ccc(-n2c(=O)n([C@H]3CCN(Cc4cc(C(=O)O)ccn4)C3)c3ncccc32)cc1 [Example 18, (S)-2-((3-(1-(4-Methoxyphenyl)-2-oxo-1,2-dihydro-3H-imidazo[4,5-b]pyridin-3-yl)pyrrolidin-1-yl)methyl)isonicotinic acid] | 1.95 µM
18 | O=C(O)c1ccnc(CN2CC[C@H](n3c(=O)n(-c4ccccc4)c4cccnc43)C2)c1 [Example 19, (S)-2-((3-(2-Oxo-1-phenyl-1,2-dihydro-3H-imidazo[4,5-b]pyridin-3-yl)pyrrolidin-1-yl)methyl)isonicotinic acid] | 6.34 µM
19 | Cn1c(C(=O)O)cnc1CN1CC[C@H](n2c(=O)n(-c3ccc4ccccc4c3)c3cccnc32)C1 [Example 22, (S)-1-Methyl-2-((3-(1-(naphthalen-2-yl)-2-oxo-1,2-dihydro-3H-imidazo[4,5-b]pyridin-3-yl)pyrrolidin-1-yl)methyl)-1H-imidazole-5-carboxylic acid] | 0.3 µM
20 | Cn1c(C(=O)O)cnc1CN1CCC(C)(n2c(=O)n(-c3ccc(-c4ccccc4)cc3)c3cccnc32)CC1 [Example 23, 2-((4-(1-([1,1′-Biphenyl]-4-yl)-2-oxo-1,2-dihydro-3H-imidazo[4,5-b]pyridin-3-yl)-4-methylpiperidin-1-yl)methyl)-1-methyl-1H-imidazole-5-carboxylic acid] | 5.5 µM
21 | COc1cnc2c(c1)n(-c1ccc(-c3ccc(C(=O)O)cc3)cc1)c(=O)n2[C@H]1CCN(Cc2ncc(C(=O)O)n2C)C1 [Example 24, (S)-2-((3-(1-(4′-Carboxy-[1,1′-biphenyl]-4-yl)-6-methoxy-2-oxo-1,2-dihydro-3H-imidazo[4,5-b]pyridin-3-yl)pyrrolidin-1-yl)methyl)-1-methyl-1H-imidazole-5-carboxylic acid] | 0.11 µM
22 | Cn1c(C(=O)O)cnc1CN1C[C@@H](F)[C@H](n2c(=O)n(-c3ccc(-c4ccc(C(=O)O)cc4)cc3)c3cccnc32)C1 [Example 25, 2-(((3R,4R)-3-(1-(4′-Carboxy-[1,1′-biphenyl]-4-yl)-2-oxo-1,2-dihydro-3H-imidazo[4,5-b]pyridin-3-yl)-4-fluoropyrrolidin-1-yl)methyl)-1-methyl-1H-imidazole-5-carboxylic acid] | 0.11 µM

same assay, conditions: read-out: inhibition rate at the compound concentration of 100 μM (numerals with *); compound concentration 100 μM

Row | inhibition at 100 µM | Compound
23 | 34% | Cn1cnc(CN2CC[C@H](n3c(=O)n(-c4ccc(-c5ccccc5)cc4)c4cccnc43)C2)c1 [Example 6, (S)-1-([1,1′-Biphenyl]-4-yl)-3-(1-((1-methyl-1H-imidazol-4-yl)methyl)pyrrolidin-3-yl)-1,3-dihydro-2H-imidazo[4,5-b]pyridin-2-one hydrochloride]
24 | 29% | O=c1n(-c2ccc(-c3ccccc3)cc2)c2cccnc2n1[C@H]1CCN(Cc2ncccc2O)C1 [Example 8, (S)-1-([1,1′-Biphenyl]-4-yl)-3-(1-((3-hydroxypyridin-2-yl)methyl)pyrrolidin-3-yl)-1,3-dihydro-2H-imidazo[4,5-b]pyridin-2-one]
25 | 39% | Cc1cccnc1CN1CC[C@H](n2c(=O)n(-c3ccc(C(=O)O)cc3)c3cccnc32)C1 [Example 21, (S)-4-(3-(1-((3-Methylpyridin-2-yl)methyl)pyrrolidin-3-yl)-2-oxo-2,3-dihydro-1H-imidazo[4,5-b]pyridin-1-yl)benzoic acid hydrochloride]
